Consider five molecules from patent US12139742B2, “Devices, systems, and methods for preparing a standardized inoculum for antimicrobial susceptibility testing” (Avails Medical, Inc., priority 2020, dated 2024).

In assay [1] the test system is 23 different positive blood culture (PBC) samples comprising seven different species of bacteria. The assay is described as follows: Kirby-Bauer disk diffusion AST of 0.5 McFarland inocula (present method vs traditional subculture). Type of assay: cell-based. Conditions: for # I: number of isolates deemed intermediate (I); for # R: number of isolates deemed resistant (R); for # S: number of isolates deemed susceptible (S). An excerpt:
The standardized inoculum 1726 (e.g., the 0.5 McFarland inoculum) can then be used directly for antimicrobial susceptibility testing using manual disk diffusion or diluted further for automated AST platforms. For example, the standardized inoculum 1726 prepared using the method 1700 and system 1702 disclosed herein can be subjected to manual Kirby-Bauer disk diffusion AST or an automated AST platform such as the VITEK®2 platform.
(§1) Both the present method 1700 and traditional microbial subculturing techniques were used to prepare standardized 0.5 McFarland inocula for AST using Kirby-Bauer disk diffusion (see Table 1) and the automated VITEK2 GN81 AST platform (see Table 2).
(§2) Two sets of standardized 0.5 McFarland inocula were prepared from 23 different positive blood culture (PBC) samples comprising seven different species of bacteria. The 23 PBC samples included six samples of Escherichia coli (ECo), two samples of Enterobacter cloacae (ECl), three samples of Klebsiella pneumoniae (KPn), four samples of Klebsiella oxytoca (KOx), two samples of Citrobacter freundii (CFr), four samples of Serratia marcescens (SMa), and two samples of Klebsiella aerogenes (KAe).
(§3) The first set was prepared using the presently disclosed method 1700 (sample preparation time: between 60 minutes and 180 minutes) and the second set was prepared using traditional microbial subculturing techniques (sample preparation time: between 18 hours to 24 hours). The testing was conducted using the automated VITEK®2 GN81 AST platform (see Table 1) and manual Kirby-Bauer disk diffusion (see Table 2).
In total, 296 minimum inhibitory concentrations (MICs) from the VITEK®2 GN81 platform and 224 zone sizes on disk diffusion were evaluated.
(In general: In agar diffusion tests the substance spreads into inoculated agar from a disc or well.)

Assay [2] shares this test system. The assay is described as follows: VITEK 2 GN81 automated AST of 0.5 McFarland inocula (present method vs traditional subculture). It counts as cell-based. To be noted: for # I: number of isolates deemed intermediate (I); for # R: number of isolates deemed resistant (R); for # S: number of isolates deemed susceptible (S). As for the experimental part:
as §1, §2, §3

The test system of assay [3] is KOx harboring the KPC-3 gene. The assay can be described thus: Disk diffusion AST, single isolate with major error. It counts as cell-based, Klebsiella oxytoca. As for the experimental part:
as §3

Where [4] appears, read: inoculum prepared using the present method 1700.

For the molecule Piperacillin-tazobactam, in assay [1], the “# I” value came out at 1, the “# R” value was found to be 3 and the “# S” value is recorded as 14. In assay [2], the “# I” value is reported as 1, the “# R” value is listed as 3 and the “# S” value was determined as 5.
As to Amoxicillin-Clavulanic acid, in assay [1], the “# I” value is on record as 0, the “# R” value worked out at 7 and the “# S” value worked out at 6. Besides, in assay [2], the “# I” value is listed as 1, the “# R” value was found to be 6 and the “# S” value came to 6.
As to Trimethoprim-sulfamethoxazole, in assay [2], the “# I” value came out at 0, the “# R” value was 6 and the “# S” value is listed as 11.
In the case of `C[C@@H](O)[C@H]1C(=O)N2C(C(=O)O)=C(S[C@@H]3CN[C@H](C(=O)N(C)C)C3)[C@H](C)[C@H]12` [Meropenem], in assay [3] (control 0.5 McFarland inoculum), the susceptibility category result is “susceptible” and the zone size is 23 mm. In assay [3] (setting [4]), the susceptibility category entry was “resistant” and the zone size was found to be 19 mm.
For the molecule Gentamicin, in assay [1], the “# I” value turned out to be 1, the “# R” value was 2 and the “# S” value stood at 20. Moreover, in assay [2], the “# I” value is recorded as 1, the “# R” value is recorded as 2 and the “# S” value is 20.
